Peptide text beside a SMILES is read from it. * marks the point of attachment. Cbz = O=C(OCc1ccccc1)*
Key:
Format in all cases: cell-based, mouse
[1] = test system: iNOS degradation in Ssb-1T/+ and Ssb-2T/+ BMDM; assay: iNOS degradation post-wash in SSB transgenic BMDM (Western blot); details: MG-132 10 μM post-wash
Experimental: FIG. 11. SSB-1 and SSB-2 regulation of iNOS expression is dependent on the proteasome. BMDM from (A) littermate controls (Ssb-1^+/+) and SSB-1-transgenic mice (Ssb-1^T/+) or (B) Ssb-1^+/+ and SSB-2-transgenic mice (Ssb-2^T/+) were incubated with IFNγ and LPS (20 ng/ml) for 16 h, washed, replenished with fresh medium with (+) or without (−) the proteasomal inhibitor MG-132 (10 μM) and lysed at the indicated times post-wash. Proteins were separated by SDS-PAGE and analysed by Western blot using anti-iNOS antibodies. Equivalent protein loading was confirmed by stripping and reprobing the membrane with anti-tubulin antibodies.
Bone marrow-derived macrophages were generated as described and re-plated at 1.0×10^6 cells/well on 6-well plates (Costar) in DME containing 10% FCS and 20% L-cell conditioned media. Cells were incubated with IFNγ and LPS as described, and lysed in KALB lysis buffer (Nicholson et al., 1995) containing protease inhibitors (Complete Cocktail tablets, Roche), 1 mM phenylmethylsulphonyl fluoride, 1 mM Na3VO4 and 1 mM NaF. Proteins were immunoprecipitated using anti-Flag antibody conjugated to Sepharose (M2; EASTMAN KODAK). Proteins were separated by sodium dodecyl sulphatepolyacrylamide gel electrophoresis (SDS-PAGE) under reducing conditions and electrophoretically transferred to Biotrace PVDF membranes (Pall Corp. Ann Arbor, Mich.). […]

Spsb1 mRNA = assay: Spsb1 knockdown in BMDM by Q-PCR; details: 10 ng/ml LPS 4 h, compared to non-sense control shRNA, p<0.0001
Experimental: Bone marrow-derived macrophages were generated as described and replated at 1.0×10^6 cells/well on 6-well plates (Costar) in DME containing 10% FCS and 20% L-cell conditioned media. The following day, triplicate cultures were incubated with murine IFNγ (10 ng/ml) and LPS (20 ng/ml), unless otherwise indicated. Total cellular RNA was isolated using the RNeasy kit (QIAGEN, Valencia, Calif.) and first strand cDNA synthesis performed using Superscript II RNASE H— reverse transcriptase (Invitrogen, Carlsbad, Calif.) according to the manufacturer's instructions. Real-time PCR was performed on an ABI Prism 7900HT sequence detection system (Applied Biosystems, Foster City, Calif.). Cycling conditions were as follows: initial denaturation (95° C. for 15 min), followed by 40 cycles of 94° C. for 15 s, 50° C. (SSB-1, -4), 60° C. (SSB-2, -3) or 49° C. (GAPDH) for 30 s and 72° C. for 15 s with a transition rate of 20° C./s and a single fluorescence measurement, melting curve program (60° C.-95° C., with a heating rate of 0.1° C./s and continuous fluorescence measurement) and a final cooling step to 40° C. All PCR reactions were performed using the QuantiTect SYBR Green PCR Kit (QIAGEN) in 10 μl reactions containing […] of forward and reverse primers, 5 μl of QuantiTect Master Mix and 4 μl of cDNA (diluted 1 in 5). […]

iNOS protein in BMDM = assay: iNOS expression in shRNA infected BMDM (Western blot)
Experimental: Bone marrow-derived macrophages were generated as described and re-plated at 1.0×10^6 cells/well on 6-well plates (Costar) in DME containing 10% FCS and 20% L-cell conditioned media. Cells were incubated with IFNγ and LPS as described, and lysed in KALB lysis buffer (Nicholson et al., 1995) containing protease inhibitors (Complete Cocktail tablets, Roche), 1 mM phenylmethylsulphonyl fluoride, 1 mM Na3VO4 and 1 mM NaF. Proteins were immunoprecipitated using anti-Flag antibody conjugated to Sepharose (M2; EASTMAN KODAK). Proteins were separated by sodium dodecyl sulphatepolyacrylamide gel electrophoresis (SDS-PAGE) under reducing conditions and electrophoretically transferred to Biotrace PVDF membranes (Pall Corp. Ann Arbor, Mich.). Membranes were blocked overnight in 10% w/v skim milk and incubated with primary antibody for 2 h. Antibody binding was visualized with either peroxidase-conjugated goat anti-rat immunoglobulin (Southern Biotech) or peroxidase-conjugated sheep anti-rabbit immunoglobulin (Chemicon, Melbourne, Australia), and the enhanced chemiluminescence (ECL) system (Amersham, Little Chalfont, Buckinghamshire, UK). To re-blot, the membrane was first stripped of antibodies in 0.1 M glycine, pH 2.9.
Oligonucleotides targeting SPSB 1 ([…] (SEQ ID NO:84)) were designed as previously described (27). shRNAmir constructs were created by annealing the oligonucleotides in 5× annealing buffer (0.5 M potassium acetate, 0.01 M magnesium acetate and 0.15 M HEPES pH 7.4) for 5 min at 95° C., followed by incubation for 10 min at 80° C. and a 5-7 h ramp from 80° C. to 4° C. (reducing by 0.5° C. every 2.5 min). Annealed oligonucleotides were subsequently subcloned into the LMP vector (Dickins et al; 2005 & 2006). Non-sense shRNAmir and luciferase control constructs in the LMS vector were a kind gift from Dr. Marnie Blewitt (Majewski et al, 2008) and Dr Ross Dickins (unpublished data) respectively. To create retrovirus, 293T cells were transfected as described previously (Majewski et al, 2008). The medium was replaced with DMEM containing 10% FBS and 20% L-cell conditioned medium 24 h after transfection and viral supernatants harvested the following day. Total bone marrow was collected and non-adherent haematopoietic cells were harvested by centrifugation and red blood cells removed by washing in red cell removal buffer (154.4 mM NH4Cl, 0.1 mM EDTA, 12 mM. NaHCO3). Retroviral supernatants were applied to culture dishes pre-treated with 32 μg/ml RetroNectin (Takara Biosciences, Shiga, Japan) and centrifuged for 1 h at 4000 g at 4° C. […]
To analyse the kinetics of iNOS induction in BMDM infected with an Spsb1 shRNA construct cells were stimulated with 100 ng/ml LPS or 25 μg/ml PolyIC for various times, then lysed and iNOS expression analysed by Western blot. […]

NO production in BMDM = assay: Nitric oxide production in shRNA infected BMDM (Griess assay)
Experimental: As a measure of nitric oxide production, 100 μl of culture supernatants were assayed for nitrite by reaction with 10 μl of Griess reagent A (1% sulfanilamide in 5% phosphoric acid) for 10 min at room temperature, followed by the addition of 10 μl Griess reagent B [0.14% N-(1-naphthyl)ethylenediamine dihydrochloride], and nitrite content determined essentially as described (Scott et al., 2000).
Oligonucleotides targeting SPSB 1 ([…] (SEQ ID NO:84)) were designed as previously described (27). shRNAmir constructs were created by annealing the oligonucleotides in 5× annealing buffer (0.5 M potassium acetate, 0.01 M magnesium acetate and 0.15 M HEPES pH 7.4) for 5 min at 95° C., followed by incubation for 10 min at 80° C. and a 5-7 h ramp from 80° C. to 4° C. (reducing by 0.5° C. every 2.5 min). Annealed oligonucleotides were subsequently subcloned into the LMP vector (Dickins et al; 2005 & 2006). Non-sense shRNAmir and luciferase control constructs in the LMS vector were a kind gift from Dr. Marnie Blewitt (Majewski et al, 2008) and Dr Ross Dickins (unpublished data) respectively. To create retrovirus, 293T cells were transfected as described previously (Majewski et al, 2008). The medium was replaced with DMEM containing 10% FBS and 20% L-cell conditioned medium 24 h after transfection and viral supernatants harvested the following day. Total bone marrow was collected and non-adherent haematopoietic cells were harvested by centrifugation and red blood cells removed by washing in red cell removal buffer (154.4 mM NH4Cl, 0.1 mM EDTA, 12 mM. NaHCO3). Retroviral supernatants were applied to culture dishes pre-treated with 32 μg/ml RetroNectin (Takara Biosciences, Shiga, Japan) and centrifuged for 1 h at 4000 g at 4° C. Bone marrow cells were infected by co-culturing with the virus in the presence of 4 μg/ml 30 polybrene-containing medium for 24 h. […]
Using a Griess assay, NO production was measured in response to 20 ng/ml LPS and 25 μg/ml PolyIC in BMDM infected with non-sense or Spsb1 shRNA at 24 h and 48 h. […]

| Molecule | effect on enhanced iNOS degradation [1] | Spsb1 expression (Spsb1 mRNA) | kinetics of iNOS clearance (iNOS protein in BMDM; 20 ng/ml LPS or 25 μg/ml PolyIC overnight, stimulus removed) | iNOS amount in degradation experiment (iNOS protein in BMDM; 20 ng/ml LPS or 25 μg/ml PolyIC overnight, stimulus removed, compared to non-sense) | iNOS protein amount during induction timecourse (iNOS protein in BMDM; 100 ng/ml LPS or 25 μg/ml PolyIC) | time of first observed iNOS expression post-treatment (iNOS protein in BMDM; 100 ng/ml LPS or 25 μg/ml PolyIC, non-sense shRNA control 8 h) [h] | NO production (NO production in BMDM; 24 h, LPS and PolyIC, compared to non-sense) | NO production (NO production in BMDM; 48 h, LPS, p=0.0446) | NO production (NO production in BMDM; 48 h, PolyIC) |
| --- | --- | --- | --- | --- | --- | --- | --- | --- | --- |
| CC(C)C[C@@H](C=O)NC(=O)[C@H](CC(C)C)NC(=O)[C@H](CC(C)C)NC(=O)OCc1ccccc1 [MG-132] (Cbz-Leu-Leu-Leu-aldehyde) | abrogated |  |  |  |  |  |  |  |  |
| Spsb1 shRNA: retroviral shRNAmir construct targeting SPSB1, CCAGATGCAGAGAATAAACTA (SEQ ID NO:84), in LMP vector |  | significantly reduced | essentially unchanged | increased amount of iNOS | more iNOS protein | 6 | increase | significant increase | increase |

Reference: patent US20120308570A1, “METHODS FOR TREATING DISEASES” (priority 2009, published 2012)
